Assays:
[1] = test system: P1 promoter region of the human Runx2 gene; assay: RUNX2 P1 promoter luciferase reporter assay in BMP-2-induced C3H10T1/2 stable expression strain (primary, secondary, tertiary screening); assay type: cell-based; conditions: five times of screening (N=6/time); average of 5 times or even at once
From the text: Existing drugs which increase the promoter activity of the transcription factor Runx2 were exhaustively searched by luciferase assay. Firstly, the P1 promoter region of the human Runx2 gene was inserted into the multiple cloning site of the pGL4 luciferase reporter vector (Promega K.K.) (pGL4.10 vector). The pGL4.10 vector was transfected into the undifferentiated mouse mesenchymal cell line C3H10T1/2, and selectively cultured on a G418-containing medium, thereby establishing the stable expression strain. The cells were seeded on a 96-well (day 1), and human BMP-2 was added to each well on day 2, thereby inducing differentiation into osteoblasts. On the following day, the test compounds (10 μM) composing Prestwick Chemical Library (registered trademark) (Prestwick Chemical Ltd.) were added, and the cells were collected 24 hours after, and subjected to luciferase assay.
In addition to the compounds which made the reporter activity of luciferase (average of 5 times) 1.5 times that of the control, those made the activity 1.5 times than that of the control even at once were selected.

luciferase protein = assay: double luciferase assay, pGL4.10 basic vector and phRL vector cotransfected into C3H10T1/2 cells; assay type: cell-based; conditions: pGL4.10 [luc2/SV40] basic vector and phRL [hRluc/TK] vector
Experimental: In order to exclude the possibility of the potential agent to increase the enzymatic activity of luciferase protein, the pGL4. 10 basic vector (pGL4.10 [luc2/SV40] basic vector) and phRLvector (phRL [hRluc/TK] vector) were cotransfected into the C3H10T1/2 cells, the potential agents were individually added, and double luciferase assay was performed.

Runx2 gene [2] = assay: Runx2 gene expression by quantitative PCR in HOS cells; assay type: cell-based, human; conditions: PPI cultured for 24 hours, FIG. 1
Experimental: (§1) Human osteogenic sarcoma cells (HOSs) and the C3H10T1/2 cells were used in the experiment. Firstly, the cells (HOS or C3H10T1/2) were seeded on a 12-well plate (day 1). When the C3H10T1/2 cells were used, the human BMP-2 was added to each well on the following day. On day 3, PPI (rabeprazole or lansoprazole) was added and cultured for 24 hours, and the cells were collected. Total RNAs were prepared from the collected cells, and the expression of the Runx2 gene was analyzed by the quantitative PCR method.

Runx2 gene [3] = assay: Runx2 gene expression by quantitative PCR in BMP-2-induced C3H10T1/2 cells; assay type: cell-based, mouse; conditions: C3H10T1/2 cells differentiated by BMP-2; PPI cultured for 24 hours; FIG. 2
Experimental: as §1

Runx2 protein [4] = assay: Runx2 protein expression by Western blot in HOS cells; assay type: cell-based, human; conditions: 48 hours and 78 hours after the addition of PPI, relative to Gapdh, FIGS. 3 and 4
Experimental: as §1
(§2) Using the HOS cells and the C3H10T1/2 cells cultured in the same manner as in 4-1, and the expression level of the Runx2 protein and the ALP activity which is the index of bone differentiation were evaluated over time. The expression level of the Runx2 protein was evaluated by the Western blot test, and the ALP activity was measured by the ELISA method.

Runx2 protein [5] = assay: Runx2 protein expression by Western blot in BMP-2-induced C3H10T1/2 cells; assay type: cell-based, mouse; conditions: C3H10T1/2 cells differentiated by BMP-2; 48 hours and 78 hours after the addition of PPI; relative to Gapdh; FIGS. 5 and 6
Experimental: as §1, §2

[6] = test system: alkaline phosphatase (ALP) activity; assay: ALP activity by ELISA in HOS cells; assay type: cell-based, human; conditions: day 6 after the addition of PPI, FIG. 7
Experimental: as §1, §2

[7] = test system: alkaline phosphatase (ALP) activity; assay: ALP activity by ELISA in BMP-2-induced C3H10T1/2 cells; assay type: cell-based, mouse; conditions: day 5 after the addition of PPI, FIG. 8
Experimental: as §1, §2

Runx2 gene [8] = assay: Runx2 gene expression in rat cultured bone marrow mesenchymal cells; assay type: cell-based; conditions: bone-inducing media, P1, P2, P3, 24 hours after the addition of PPI, FIG. 9
Experimental: Mesenchymal cells were prepared from a rat bone marrow solution, and cultured (cultured bone marrow mesenchymal cells). Subsequently, the cells were subcultivated (P1, P2, and P3) in bone-inducing media (dexamethasone, β-glycerophosphoric acid, and ascorbic acid were added the culture media). PPI was added when each of the P1, P2, and P3 reached confluent. The cells were collected 24 hours after the addition of PPI, and the expression of the Runx2 gene was analyzed in the same manner as in 4-1.

Runx2 gene [9] = assay: Runx2 gene expression in human bone marrow mesenchymal stem cells; assay type: cell-based; conditions: PPI-containing bone-inducing media, P0, P1, P2, FIG. 10
Experimental: On the other hand, the human bone marrow mesenchymal stem cells (POIETICS (registered trademark), Lonza Ltd.) were subjected to primary culture (P0) and subcultivation (P1, P2) in the PPI-containing bone-inducing media (culture media containing PPI, dexamethasone, β-glycerophosphoric acid, and ascorbic acid). The bone-inducing medium was replaced every three days. The cells were collected when each of P0, P1, and P2 reached confluent, and the expression of the Runx2 gene was analyzed in the same manner as in 4-1.

rat femur defect model = assay: rat femur defect model, soft X-ray; assay type: in vivo; conditions: SD rat femur 3 mm defect, ad libitum oral administration
From the text: The left hind femur of an SD rat (male, 9 weeks old) was exposed by anterolateral approach, and an external fixator was installed. The diaphysis was cut by an oscillating saw, (defect amount 3 mm), and the bone was elongated in a single stage, and used as a bone defect model (defect group N=6, control group N=6). Lansoprazole was given to the bone defect model by ad libitum oral administration (about 10 to 20 times the usual human dose), and the bone defect part was photographed periodically by soft X-ray. In addition, the body weight and drinking water amount were periodically measured.

[10] = test system: P1 promoter region of the human Runx2 gene; assay: RUNX2 P1 promoter luciferase reporter assay in BMP-2-induced C3H10T1/2 stable expression strain (primary, secondary, tertiary screening); assay type: cell-based; conditions: three times of screening (N=6/time) at 8 levels of concentration

SMILES | secondary screening: reporter activity of luciferase 1.5 times that of the control [1] | specificity of RUNX2 promoter promotion versus increase of luciferase activity (luciferase protein) | tertiary screening: concentration dependency of the promotion of RUNX2 promoter activity [10] | other results
CCCSc1ccc2nc(NC(=O)OC)[nH]c2c1 [albendazole, methyl n-(6-propylsulfanyl-1H-benzimidazol-2-yl) carbamate] | selected |  |  | 
O=C(O)CCNC(=O)c1ccc(/N=N/c2ccc(O)c(C(=O)O)c2)cc1 [balsalazide sodium, disodium (3Z)-3-[[4-(2-carboxylatoethylcarbamoyl)phenyl]hydrazinylidene]-6-oxocyclohexa-1,4-diene-1-carboxylate dehydrate] | selected |  |  | 
CC(C(=O)O)c1ccc(N2Cc3ccccc3C2=O)cc1 (stereo not shown) [indoprofen, 2-[4-(3-oxo-1H-isoindol-2-yl)phenyl]propanoic acid] | selected |  |  | 
Cc1c(OCC(F)(F)F)ccnc1C[S+]([O-])c1nc2ccccc2[nH]1 (stereo not shown) [lansoprazole, 2-[[3-methyl-4-(2,2,2-trifluoroethoxy)pyridin-2-yl]methylsulfinyl]-1H-benzimidazole] | selected | specifically promote the RUNX2 promoter activity | concentration dependency | induction of expression of the Runx2 gene (Runx2 gene [2]): concentration-dependent activity of inducing the expression of the Runx2 gene; induction of expression of the Runx2 gene (Runx2 gene [3]): concentration-dependent activity of inducing the expression of the Runx2 gene; Runx2 protein expression level (Runx2 protein [4]): expression inducing effect; Runx2 protein expression level (Runx2 protein [5]): expression inducing effect; ALP activity [6]: increase effect; ALP activity [7]: increase effect; induction of the expression of the Runx2 gene (Runx2 gene [8]): expression inducing effect; induction of the expression of the Runx2 gene (Runx2 gene [9]): expression inducing effect; osteogenesis promoting effect (rat femur defect model): marked osteogenesis promoting effect; animals showing good osteogenesis (bone adhesion on soft X-ray) (rat femur defect model; about 10 to 20 times the usual human dose, 12 weeks, N=6): 3/6
Cc1oncc1C(=O)Nc1ccc(C(F)(F)F)cc1 [leflunomide, 5-methyl-N-[4-(trifluoromethyl)phenyl]-1,2-oxazole-4-carboxamide] | selected | specifically promote the RUNX2 promoter activity | concentration dependency | 
O=c1cc(-c2ccc(O)c(O)c2)oc2cc(O)cc(O)c12 [luteolin, 2-(3,4-dihydroxyphenyl)-5,7-dihydroxychromen-4-one] | selected |  |  | 
COC(=O)Nc1nc2ccc(SC(C)C)cc2[nH]1 [methiazole, methyl n-(6-propan-2-ylsulfanyl-1H-benzimidazol-2-yl) carbamate] | selected |  |  | 
COc1ccc2cc(CCC(C)=O)ccc2c1 [nabumetone, 4-(6-methoxynaphthalen-2-yl)butan-2-one] | selected | specifically promote the RUNX2 promoter activity | concentration dependency | 
Cl.Nc1ccc(N=Nc2ccccc2)c(N)n1 [phenazopyridine hydrochloride, 3-phenyldiazenylpyridine-2,6-diamine hydrochloride] | selected |  |  | 
COCCCOc1ccnc(C[S+]([O-])c2nc3ccccc3[nH]2)c1C (stereo not shown) [rabeprazole, 2-[[4-(3-methoxypropoxy)-3-methylpyridin-2-yl]methylsulfinyl]-1H-benzimidazole] | selected | specifically promote the RUNX2 promoter activity | concentration dependency | induction of expression of the Runx2 gene (Runx2 gene [2]): concentration-dependent activity of inducing the expression of the Runx2 gene; induction of expression of the Runx2 gene (Runx2 gene [3]): concentration-dependent activity of inducing the expression of the Runx2 gene; Runx2 protein expression level (Runx2 protein [4]): expression inducing effect; Runx2 protein expression level (Runx2 protein [5]): expression inducing effect; ALP activity [6]: increase effect; ALP activity [7]: increase effect; induction of the expression of the Runx2 gene (Runx2 gene [8]): expression inducing effect; induction of the expression of the Runx2 gene (Runx2 gene [9]): expression inducing effect
c1ccc2[nH]c(-c3cscn3)nc2c1 [tiabendazole, 4-(1H-benzimidazol-2-yl)-1,3-thiazole] | selected |  |  | 
CC(C(=O)O)c1ccc(C(=O)c2ccccc2)s1 (stereo not shown) [tiaprofenic acid, 2-(5-benzoylthiophen-2-yl)propanoic acid] | selected | specifically promote the RUNX2 promoter activity | concentration dependency | 
COc1ccc(/C=C/C(=O)Nc2ccccc2C(=O)O)cc1OC [tranilast, 2-[[(E)-3-(3,4-dimethoxyphenyl)prop-2-enoyl]amino]benzoic acid] | selected | slightly increase the luciferase activity | concentration dependency | 
